Each structure is given as a SMILES string. In brackets after ≈: the same amount, converted by molar mass.

Broadly, the MIC is the lowest concentration that inhibits growth of the organism. Read a low MIC as a more susceptible organism.

What all share (type): functional
The test system of assay [1] is Escherichia coli. In words: In vitro antibacterial activity against Escherichia coli J3272 Tet D.
Assay [2] has as its system Escherichia coli. The assay can be described thus: In vitro antibacterial activity against Escherichia coli UBMS 90-4 Tet M.
The test system of assay [3] is Staphylococcus aureus. The assay can be described thus: In vitro antibacterial activity against Staphylococcus aureus UBMS 90-3 sensitive.
The test system of assay [4] is Escherichia coli. In words: In vitro antibacterial activity against Escherichia coli UBMS 88-1 Tet B.
For assay [5], the system named is Escherichia coli. In words: In vitro antibacterial activity against Escherichia coli PRP1 Tet A.
The test system of assay [6] is Escherichia coli. The assay can be described thus: In vitro antibacterial activity against Escherichia coli UBMS 90-5 sensitive.
The subject of assay [7] is Staphylococcus aureus. In words: In vitro antibacterial activity against Staphylococcus aureus UBMS 88-7 Tet K.
In assay [8] the test system is Staphylococcus aureus. In words: In vitro antibacterial activity against Staphylococcus aureus Smith sensitive.
Assay [9] has as its system Staphylococcus aureus. In words: In vitro antibacterial activity against Staphylococcus aureus UBMS 90-1 Tet M.
For assay [10], the system named is Escherichia coli. The assay can be described thus: In vitro antibacterial activity against Escherichia coli J3272 Tet C.
The subject of the next assay is Enterococcus. In words: In vitro antibacterial activity against Enterococcus ATCC 29212.

As to `CN(C)c1cc(NC(=O)CN2CCSCC2)c(O)c2c1CC1CC3[C@H](N(C)C)C(=O)C(C(N)=O)=C(O)[C@@]3(O)C(=O)C1=C2O` (some centres undefined), the MIC against Escherichia coli [1] was 16 µg/mL (≈ 26 µM); in the assay on Escherichia coli [2], above 32 µg/mL; in the assay with Staphylococcus aureus [3] it was 1 µg/mL (≈ 1.62 µM); in the assay with Escherichia coli [4], above 32 µg/mL; against Escherichia coli [5] it was above 32 µg/mL; with Escherichia coli [6], above 32 µg/mL. In addition, the MIC with Staphylococcus aureus [7] was 4 µg/mL (≈ 6.5 µM); with Staphylococcus aureus [8] it was 0.5 µg/mL (≈ 0.812 µM); against Staphylococcus aureus [9], 1 µg/mL (≈ 1.62 µM); with Escherichia coli [10], above 32 µg/mL; in the assay with Enterococcus it was 0.25 µg/mL (≈ 0.406 µM).
As for `CCCCCCNCC(=O)Nc1cc(N(C)C)c2c(c1O)C(=O)C1=C(O)[C@]3(O)C(O)=C(C(N)=O)C(=O)[C@@H](N(C)C)C3CC1C2` (some centres undefined), the MIC against Escherichia coli [1] came to 0.12 µg/mL (≈ 0.196 µM); against Escherichia coli [2], 0.25 µg/mL (≈ 0.407 µM); in the assay with Staphylococcus aureus [3], 0.06 µg/mL (≈ 0.0978 µM); against Escherichia coli [4], 0.5 µg/mL (≈ 0.815 µM); against Escherichia coli [5], 0.5 µg/mL (≈ 0.815 µM); in the assay with Escherichia coli [6] it was 0.25 µg/mL (≈ 0.407 µM). The MIC against Staphylococcus aureus [7] came out at 2 µg/mL (≈ 3.26 µM); with Staphylococcus aureus [8], 0.12 µg/mL (≈ 0.196 µM); in the assay on Staphylococcus aureus [9], 0.25 µg/mL (≈ 0.407 µM); with Escherichia coli [10] it was 0.5 µg/mL (≈ 0.815 µM); in the assay with Enterococcus it was 0.12 µg/mL (≈ 0.196 µM).
In the case of `CN(C)c1cc(NC(=O)CNC2CC2)c(O)c2c1CC1CC3[C@H](N(C)C)C(=O)C(C(N)=O)=C(O)[C@@]3(O)C(=O)C1=C2O` (some centres undefined), the MIC against Escherichia coli [1] turned out to be 2 µg/mL (≈ 3.51 µM); against Escherichia coli [2], 2 µg/mL (≈ 3.51 µM); in the assay with Staphylococcus aureus [3], 0.5 µg/mL (≈ 0.878 µM); against Escherichia coli [4] it was 4 µg/mL (≈ 7.02 µM); in the assay with Escherichia coli [5] it was 32 µg/mL (≈ 56.2 µM); in the assay on Escherichia coli [6], 2 µg/mL (≈ 3.51 µM). Also, the minimum inhibitory concentration (MIC) in the assay with Staphylococcus aureus [7] turned out to be 4 µg/mL (≈ 7.02 µM); against Staphylococcus aureus [8] it was 0.25 µg/mL (≈ 0.439 µM); in the assay on Staphylococcus aureus [9], 0.5 µg/mL (≈ 0.878 µM); in the assay on Escherichia coli [10] it was 8 µg/mL (≈ 14 µM); in the assay on Enterococcus it was 0.25 µg/mL (≈ 0.439 µM).
As for `CCCCNCC(=O)Nc1cc(N(C)C)c2c(c1O)C(=O)C1=C(O)[C@]3(O)C(O)=C(C(N)=O)C(=O)[C@@H](N(C)C)C3CC1C2` (some centres undefined), the MIC is 0.25 µg/mL (≈ 0.427 µM) with Escherichia coli [1]; 0.25 µg/mL (≈ 0.427 µM) in the assay with Escherichia coli [2]; 0.25 µg/mL (≈ 0.427 µM) against Staphylococcus aureus [3]; 0.5 µg/mL (≈ 0.854 µM) in the assay on Escherichia coli [4]; 1 µg/mL (≈ 1.71 µM) in the assay with Escherichia coli [5]; 0.5 µg/mL (≈ 0.854 µM) in the assay with Escherichia coli [6]. For the same compound, the MIC against Staphylococcus aureus [7] amounted to 2 µg/mL (≈ 3.41 µM); against Staphylococcus aureus [8], 0.12 µg/mL (≈ 0.205 µM); against Staphylococcus aureus [9] it was 0.5 µg/mL (≈ 0.854 µM); in the assay with Escherichia coli [10], 0.5 µg/mL (≈ 0.854 µM); in the assay with Enterococcus it was 0.12 µg/mL (≈ 0.205 µM).
Consider `CN(C)c1cc(NC(=O)CN2CCCCC2)c(O)c2c1CC1CC3[C@H](N(C)C)C(=O)C(C(N)=O)=C(O)[C@@]3(O)C(=O)C1=C2O` (some centres undefined), for which the MIC in the assay with Escherichia coli [1] was determined as 0.5 µg/mL (≈ 0.837 µM); against Escherichia coli [2], 0.5 µg/mL (≈ 0.837 µM); with Staphylococcus aureus [3], 0.12 µg/mL (≈ 0.201 µM); against Escherichia coli [4], 0.5 µg/mL (≈ 0.837 µM); in the assay on Escherichia coli [5], 1 µg/mL (≈ 1.67 µM); with Escherichia coli [6] it was 0.5 µg/mL (≈ 0.837 µM). Moreover, the MIC against Staphylococcus aureus [7] amounted to 0.25 µg/mL (≈ 0.418 µM); in the assay with Staphylococcus aureus [8] it was 0.12 µg/mL (≈ 0.201 µM); against Staphylococcus aureus [9], 0.25 µg/mL (≈ 0.418 µM); in the assay with Escherichia coli [10], 0.25 µg/mL (≈ 0.418 µM); with Enterococcus it was 0.06 µg/mL (≈ 0.1 µM).
With `CN(C)c1cc(NC(=O)CNC2CC3CCC2C3)c(O)c2c1CC1CC3[C@H](N(C)C)C(=O)C(C(N)=O)=C(O)[C@@]3(O)C(=O)C1=C2O` (some centres undefined), the MIC in the assay with Escherichia coli [1] is 0.25 µg/mL (≈ 0.401 µM); in the assay on Escherichia coli [2], 0.5 µg/mL (≈ 0.802 µM); against Staphylococcus aureus [3] it was 0.25 µg/mL (≈ 0.401 µM); in the assay on Escherichia coli [4] it was 0.5 µg/mL (≈ 0.802 µM); in the assay on Escherichia coli [5], 1 µg/mL (≈ 1.6 µM); with Escherichia coli [6], 0.5 µg/mL (≈ 0.802 µM). Besides, the minimum inhibitory concentration (MIC) worked out at 0.5 µg/mL (≈ 0.802 µM) in the assay with Staphylococcus aureus [7]; 0.25 µg/mL (≈ 0.401 µM) with Staphylococcus aureus [8]; 0.5 µg/mL (≈ 0.802 µM) against Staphylococcus aureus [9]; 0.5 µg/mL (≈ 0.802 µM) against Escherichia coli [10]; 0.12 µg/mL (≈ 0.192 µM) in the assay on Enterococcus.
As to `CCCCCCCCCCCNCC(=O)Nc1cc(N(C)C)c2c(c1O)C(=O)C1=C(O)[C@]3(O)C(O)=C(C(N)=O)C(=O)[C@@H](N(C)C)C3CC1C2` (some centres undefined), the MIC against Escherichia coli [1] is 32 µg/mL (≈ 46.8 µM); against Escherichia coli [2], 32 µg/mL (≈ 46.8 µM); against Staphylococcus aureus [3], 0.5 µg/mL (≈ 0.731 µM); in the assay on Escherichia coli [4], 32 µg/mL (≈ 46.8 µM); against Escherichia coli [5] it was 32 µg/mL (≈ 46.8 µM); with Escherichia coli [6], 16 µg/mL (≈ 23.4 µM). Moreover, the MIC in the assay with Staphylococcus aureus [7] was 2 µg/mL (≈ 2.92 µM); in the assay on Staphylococcus aureus [8] it was 0.5 µg/mL (≈ 0.731 µM); against Staphylococcus aureus [9], 16 µg/mL (≈ 23.4 µM); in the assay on Escherichia coli [10], 32 µg/mL (≈ 46.8 µM); against Enterococcus, 2 µg/mL (≈ 2.92 µM).
As to `CN(C)c1cc(NC(=O)CNC2CCCCCCC2)c(O)c2c1CC1CC3[C@H](N(C)C)C(=O)C(C(N)=O)=C(O)[C@@]3(O)C(=O)C1=C2O` (some centres undefined), the MIC against Escherichia coli [1] is 0.5 µg/mL (≈ 0.782 µM); with Escherichia coli [2], 2 µg/mL (≈ 3.13 µM); with Staphylococcus aureus [3], 0.25 µg/mL (≈ 0.391 µM); in the assay on Escherichia coli [4], 4 µg/mL (≈ 6.25 µM); against Escherichia coli [5] it was 2 µg/mL (≈ 3.13 µM); against Escherichia coli [6], 4 µg/mL (≈ 6.25 µM). For the same compound, the MIC stood at 0.5 µg/mL (≈ 0.782 µM) against Staphylococcus aureus [7]; 0.5 µg/mL (≈ 0.782 µM) in the assay with Staphylococcus aureus [8]; 1 µg/mL (≈ 1.56 µM) with Staphylococcus aureus [9]; 2 µg/mL (≈ 3.13 µM) with Escherichia coli [10]; 0.25 µg/mL (≈ 0.391 µM) with Enterococcus.
For the compound `CN(C)c1cc(NC(=O)CNCC2CC2)c(O)c2c1CC1CC3[C@H](N(C)C)C(=O)C(C(N)=O)=C(O)[C@@]3(O)C(=O)C1=C2O` (some centres undefined), the MIC was determined as 0.25 µg/mL (≈ 0.428 µM) against Escherichia coli [1]; 0.5 µg/mL (≈ 0.857 µM) against Escherichia coli [2]; 0.5 µg/mL (≈ 0.857 µM) against Staphylococcus aureus [3]; 0.5 µg/mL (≈ 0.857 µM) in the assay on Escherichia coli [4]; 4 µg/mL (≈ 6.85 µM) against Escherichia coli [5]; 0.5 µg/mL (≈ 0.857 µM) in the assay on Escherichia coli [6]. Besides, the MIC in the assay on Staphylococcus aureus [7] is 4 µg/mL (≈ 6.85 µM); against Staphylococcus aureus [8] it was 0.5 µg/mL (≈ 0.857 µM); in the assay on Staphylococcus aureus [9] it was 1 µg/mL (≈ 1.71 µM); with Escherichia coli [10], 0.5 µg/mL (≈ 0.857 µM); in the assay on Enterococcus it was 0.25 µg/mL (≈ 0.428 µM).

The values are drawn from ChEMBL document CHEMBL1131723, “Synthesis and structure-activity relationship of novel glycylcycline derivatives leading to the discovery of GAR-936” (1999).
